The text below walks through data of patent US20130045962A1, “PEPTIDE DEFORMYLASE INHIBITORS” (priority 2007, published 2013).

Test in all cases: Antimicrobial activity assay (broth microdilution MIC)
Common to all, as to assay type: cell-based

The subject of assay [1] is Escherichia coli 120 (AcrAB−). As to conditions: for MIC: Escherichia coli; for MIC E. coli 120 AcrAB—: individual results, panel run 2 times. How it is done: (§1) Whole-cell antimicrobial activity was determined by broth microdilution using the Clinical and Laboratory Standards Institute (CLSI, formerly NCCLS) recommended methodology (NCCLS Document M7-A6, “Methods for Dilution Susceptibility Tests for Bacteria that Grow Aerobically Approved Standard Sixth Edition”, 2003). Compounds were tested in serial two-fold dilutions ranging from 64 to 0.06 μg/mL. A panel of 12 strains was evaluated in the assay. This panel consisted of the following laboratory strains: Staphylococcus aureus Oxford, Staphylococcus aureus WCUH29, Enterococcus faecalis I, Enterococcus faecalis 7, Haemophilus influenzae Q1, Haemophilus influenzae NEMC1, Moraxella catarrhalis 1502, Streptococcus pneumoniae 1629, Streptococcus pneumoniae N1387, Streptococcus pneumoniae Ery2, Escherichia coli 7623 (AcrABEFD+) and Escherichia coli 120 (AcrAB−). The minimum inhibitory concentration (MIC) was determined as the lowest concentration of compound that inhibited visible growth. A mirror reader was used to assist in determining the MIC endpoint.

The subject of assay [2] is Haemophilus influenzae NEMC1. As to conditions: for MIC: Haemophilus influenzae, read-out: MIC H. influenzae NEMC1. How it is done: as §1
For a further assay, the system named is Enterococcus faecalis I. The following applies: median of all results obtained, read-out: MIC E. faecalis I. How it is done: as §1
For assay [3], the system named is Streptococcus pneumoniae N1387. As to conditions: median of all results obtained, read-out: MIC S. pneumoniae N1387. How it is done:
as §1

Assay [4] has as its system Haemophilus influenzae Q1. The following applies: for MIC: Haemophilus influenzae, read-out: MIC H. influenzae Q1; for MIC H. influenzae Q1: individual results. How it is done: as §1
Assay [5] relates to Streptococcus pneumoniae 1629. The following applies: median of all results obtained, read-out: MIC S. pneumoniae 1629. How it is done: as §1
Assay [6] concerns Staphylococcus aureus Oxford. The following applies: median of all results obtained, read-out: MIC S. aureus Oxford. How it is done: as §1
Assay [7] concerns Escherichia coli 7623 (AcrABEFD+). The following applies: for MIC: Escherichia coli, read-out: MIC E. coli 7623 AcrABEFD+. How it is done: as §1
The test system of another assay is Enterococcus faecalis 7. As to conditions: median of all results obtained, read-out: MIC E. faecalis 7. How it is done:
as §1

Setting [8] is: read-out: MIC E. coli 120 AcrAB—, median of all results obtained.
Setting [9] is: NEMC1, median of all results obtained.
The mark [10] stands for this setting: Q1, median of all results obtained.
The mark [11] stands for this setting: NEMC1, individual results, panel run 2 times.
Where [12] appears, read: Q1, individual results, panel run 2 times.
The mark [13] stands for this setting: individual results, panel run 2 times.

SMILES strings stand for the structures. In brackets after ≈: the same amount, converted by molar mass. Several values for one entry are separate records, joined by “and”; a condition that tells them apart may be missing. Equal values may be shown once. Read-outs that look alike come from different tables or passages of the source.

Consider `Cc1nc(NNC(=O)[C@H](CC2CCCC2)CN(O)C=O)c(F)c(N2CCN3CCOC[C@@H]3C2)n1` [Example 24, [(2R)-2-(Cyclopentylmethyl)-3-(2-{5-fluoro-6-[(9aS)-hexahydropyrazino[2,1-c][1,4]oxazin-8(1H)-yl]-2-methyl-4-pyrimidinyl}hydrazino)-3-oxopropyl]hydroxyformamide], for which the MIC in [1] (setting [8]) was 0.188 µg/mL (≈ 0.391 µM); in [2] (setting [9]), 1 µg/mL (≈ 2.09 µM); in the assay with Enterococcus faecalis I, 48 µg/mL (≈ 100 µM); in [3], 0.5 µg/mL (≈ 1.04 µM); in assay [4] (setting [10]), 0.5 µg/mL (≈ 1.04 µM); in assay [5] it was 0.75 µg/mL (≈ 1.56 µM). In addition, the MIC came to 2 µg/mL (≈ 4.17 µM) in assay [6], 16 µg/mL (≈ 33.4 µM) in assay [7] (median of all results obtained) and 32 µg/mL (≈ 66.7 µM) in the assay with Enterococcus faecalis 7.

On to `C[C@@H]1CN(C)CCN1c1nc(Cl)nc(NNC(=O)[C@H](CC2CCCC2)CN(O)C=O)c1F` [Example 63, [(2R)-3-(2-{2-Chloro-6-[(2R)-2,4-dimethyl-1-piperazinyl]-5-fluoro-4-pyrimidinyl}hydrazino)-2-(cyclopentylmethyl)-3-oxopropyl]hydroxyformamide], for which the MIC in assay [1] (setting [8]) was 0.25 µg/mL (≈ 0.53 µM); in assay [2] (setting [9]), 0.5 µg/mL (≈ 1.06 µM); in assay [4] (setting [10]), 0.25 µg/mL (≈ 0.53 µM); in assay [7] (median of all results obtained), 4 µg/mL (≈ 8.48 µM).

On to `Cc1nc(NNC(=O)[C@H](CC2CCCC2)CN(O)C=O)c(F)c(N2CCN(C)C[C@H]2C)n1` [Example 109, [(2R)-2-(Cyclopentylmethyl)-3-(2-{6-[(2R)-2,4-dimethyl-1-piperazinyl]-5-fluoro-2-methyl-4-pyrimidinyl}hydrazino)-3-oxopropyl]hydroxyformamide], for which the “MIC E. coli 120 AcrAB—” value in assay [1] was “≦0.06, μg/mL and 0.125 μg/mL”. For the same compound, the MIC worked out at 1 µg/mL (≈ 2.21 µM) in assay [2] (setting [11]), 0.5 µg/mL (≈ 1.11 µM) in [4] (setting [12]) and 8 µg/mL (≈ 17.7 µM) in [7] (setting [13]).

As to `CN1CCN(c2nc(Cl)nc(NNC(=O)[C@H](CC3CCCC3)CN(O)C=O)c2F)CC12CC2` [Example 172, [(2R)-3-{2-[2-Chloro-5-fluoro-6-(4-methyl-4,7-diazaspiro[2.5]oct-7-yl)-4-pyrimidinyl]hydrazino}-2-(cyclopentylmethyl)-3-oxopropyl]hydroxyformamide], the MIC in assay [1] (read-out: MIC E. coli 120 AcrAB—, individual results, panel run 2 times) is 0.125 to 0.5 µg/mL (≈ 0.258 to 1.03 µM); in assay [2] (setting [11]), 1 µg/mL (≈ 2.07 µM); in [4] (setting [12]), 1 µg/mL (≈ 2.07 µM). For the same compound, the “MIC H. influenzae NEMC1” value in [2] (setting [13]) was 2 µg/mL (≈ 4.13 µM). For the same compound, the “MIC H. influenzae Q1” value in assay [4] (panel run 2 times) came out at 2 µg/mL (≈ 4.13 µM). Further, the “MIC E. coli 7623 AcrABEFD+” value in assay [7] (setting [13]) is 4 µg/mL and 16 µg/mL.

Take `Cc1nc(NNC(=O)[C@H](CC2CCCC2)CN(O)C=O)c(F)c(N2CCN(C)C3(CC3)C2)n1` [Example 275, ((2R)-2-(Cyclopentylmethyl)-3-{2-[5-fluoro-2-methyl-6-(4-methyl-4,7-diazaspiro[2.5]oct-7-yl)-4-pyrimidinyl]hydrazino}-3-oxopropyl)hydroxyformamide]: the “MIC E. coli 120 AcrAB—” value in assay [1] is “≦0.06, μg/mL and 0.5 μg/mL”. Moreover, the MIC in assay [2] (setting [11]) was found to be 1 µg/mL (≈ 2.16 µM); in assay [4] (setting [12]) it was 0.5 µg/mL (≈ 1.08 µM). Further, in assay [4] (panel run 2 times), the “MIC H. influenzae Q1” value came out at 1 µg/mL (≈ 2.16 µM). The “MIC E. coli 7623 AcrABEFD+” value in [7] (setting [13]) is 4 µg/mL and 16 µg/mL.
